{"source": "the NIST ThermoML archive (doi:10.1021/acs.jced.8b00632)", "key": {"[1]": {"conditions": "Crystal; DTA"}, "[2]": {"assay": "Molar enthalpy of transition or fusion", "conditions": "Crystal; DSC"}}, "note": "Numbers after ± are expanded uncertainties.", "data": [{"smiles": "O=C(Nc1ccc(F)cc1F)c1cccnc1Oc1cccc(C(F)(F)F)c1", "values": [{"measurement": "Normal melting temperature", "setting": "[1]", "result": "162.37 ± 0.61", "unit": "°C"}, {"measurement": "Molar enthalpy of transition or fusion", "setting": "[2]", "result": "9.42 ± 0.22", "unit": "kcal/mol"}]}]}
